The data set in a line: recombinant barcode read abundance after kanamycin selection (control-corrected) (log10(CPM+1)); higher = more efficient recombination; sequences stand for … in AGTGCAGAGAAAATCGGCCAGTTTTCTCTGCCTGCAGTCCGCATGCCGT…AGATTTATGCAGCGGACTGCCTTTCTCCCAAAGTGATAAACCGGACAGTATCATGGACCGGTTTTCCCGGTAATCCGTATTTGCAAGGTTGGTTTCACT; site = the 11-nt target. A digest of the protocol:
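The screen was pooled in E. coli and paired targets with IS621 bridge RNA target-binding loops. Recombination efficiency is taken from barcode counts per million at recombinant junctions, averaged and adjusted against the control. Values, in the form log10(CPM+1), come from duplicate plating on chloramphenicol/ampicillin LB agar or on chloramphenicol/ampicillin/kanamycin with 0.1 mM IPTG.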
In the case of “GTAGACCCTTGGGTTCTAACCTGTTGCCG (site GTAGACCCTCG)”, the “recombinant barcode read abundance (log10)” value stood at 2.32.

Take “GTAGACCCTTGGGTTCTAACCTGTTGCCG (site GTTGACCCTAG)”: the “recombinant barcode read abundance (log10)” value worked out at 0.476. With “GTATCCGCTTGGGTTCTAACCTGTTGCCA (site CGGCTGCCTCC)”, the “recombinant barcode read abundance (log10)” value came out at 0.0649. With “GTATCCGCTTGGGTTCTAACCTGTTGCCA (site GTATCCGCTTG)”, the “recombinant barcode read abundance (log10)” value came out at 1.55.

Consider “GTATGAGCTTGGGTTCTAACCTGTTGCCA (site GTATGAGCTTG)”, for which the “recombinant barcode read abundance (log10)” value was determined as 0.906. The same measure for “GTATGAGCTTGGGTTCTAACCTGTTGCCA (site TTATAAGCTTG)”: 0.0331; for “GTATGAGCTTGGGTTCTAACCTGTTGCGG (site GTATGAGCTCC)”: 2.06; for “GTATGAGCTTGGGTTCTAACCTGTTGCGG (site GTATGTGCTCC)”: 0.255. The same measure for “GTATGCTCTTGGGTTCTAACCTGTTGCGT (site GTATCCTCTAT)”: 0.11. Take “GTATGCTCTTGGGTTCTAACCTGTTGCGT (site GTATGCTCTAC)”: the “recombinant barcode read abundance (log10)” value came to 1.17. Take “GTCAACCCTTGGGTTCTAACCTGTTGCGG (site GTAAACCCTCC)”: the “recombinant barcode read abundance (log10)” value stood at 0.886. For “GTCAACCCTTGGGTTCTAACCTGTTGCGG (site GTCAACCCTCC)” the value was 2.33; for “GTCAAGACTTGGGTTCTAACCTGTTGCCG (site GTCAAGACTCG)”, 1.94. On to “GTCAAGACTTGGGTTCTAACCTGTTGCCG (site GTCAAGACTTG)”, for which the “recombinant barcode read abundance (log10)” value was found to be 0.462. The same measure for “GTCAAGCCTTGGGTTCTAACCTGTTGCTA (site GCCAAACCTTA)”: 0.345; for “GTCAAGCCTTGGGTTCTAACCTGTTGCTA (site GTCAAGCCTTA)”: 0.705; for “GTCACGCCTTGGGTTCTAACCTGTTGCAT (site GACACACCTAT)”: 0.0978.

Consider “GTCACGCCTTGGGTTCTAACCTGTTGCAT (site GTCACGCCTAT)”, for which the “recombinant barcode read abundance (log10)” value was 0.588. On to “GTCACTACTTGGGTTCTAACCTGTTGCCG (site GTCACTACTCG)”, for which the “recombinant barcode read abundance (log10)” value turned out to be 0.74. As for “GTCACTACTTGGGTTCTAACCTGTTGCCG (site GTCCCTACTCG)”, the “recombinant barcode read abundance (log10)” value amounted to 0.0387. For “GTCACTACTTGGGTTCTAACCTGTTGCCG (site GTCGCTACTCG)” the value was 0.0416; for “GTCACTACTTGGGTTCTAACCTGTTGCCG (site GTCTCTACTCG)”, 0.127; for “GTCAGCCCTTGGGTTCTAACCTGTTGCTG (site GACAGCCCTCA)”, 0.379. The same measure for “GTCAGCCCTTGGGTTCTAACCTGTTGCTG (site GTCAGCCCTCA)”: 0.255; for “GTCATGTCTTGGGTTCTAACCTGTTGCCT (site GCCATGTCTAG)”: 0.781; for “GTCATGTCTTGGGTTCTAACCTGTTGCCT (site GTCATGTCTAG)”: 1.45. Turning to “GTCATGTCTTGGGTTCTAACCTGTTGCTC (site AGACGACCTCC)”, the “recombinant barcode read abundance (log10)” value came to 0.0394. For “GTCATGTCTTGGGTTCTAACCTGTTGCTC (site GTCATGTCTGA)”, the “recombinant barcode read abundance (log10)” value is 1.23. As for “GTCCAGACTTGGGTTCTAACCTGTTGCCT (site GTACAGACTAG)”, the “recombinant barcode read abundance (log10)” value came to 0.92. For “GTCCAGACTTGGGTTCTAACCTGTTGCCT (site GTCCAGACTAG)”, the “recombinant barcode read abundance (log10)” value came out at 1.97.

“GTCCAGACTTGGGTTCTAACCTGTTGCCT (site GTGCAGACTAG)”: the “recombinant barcode read abundance (log10)” value is 0.508.

As to “GTCCAGACTTGGGTTCTAACCTGTTGCCT (site GTTCAGACTAG)”, the “recombinant barcode read abundance (log10)” value was determined as 0.228.

Regarding “GTCCAGCCTTGGGTTCTAACCTGTTGCAC (site CAAAGAGCTCA)”, the “recombinant barcode read abundance (log10)” value came out at 0.291.

For the sequence “GTCCAGCCTTGGGTTCTAACCTGTTGCAC (site GTCCAGCCTGT)”, the “recombinant barcode read abundance (log10)” value came out at 2.18.

For “GTCCCCTCTTGGGTTCTAACCTGTTGCCT (site GTCACCTCTAG)”, the “recombinant barcode read abundance (log10)” value worked out at 0.0601. As for “GTCCCCTCTTGGGTTCTAACCTGTTGCCT (site GTCCCCTCTAG)”, the “recombinant barcode read abundance (log10)” value came to 1.74. The same measure for “GTCCCCTCTTGGGTTCTAACCTGTTGCCT (site GTCGCCTCTAG)”: 0.109; for “GTCCCCTCTTGGGTTCTAACCTGTTGCCT (site GTCTCCTCTAG)”: 0.0122; for “GTCCCTACTTGGGTTCTAACCTGTTGCCG (site GTCACTACTCG)”: 0.12. As to “GTCCCTACTTGGGTTCTAACCTGTTGCCG (site GTCCCTACTCG)”, the “recombinant barcode read abundance (log10)” value came out at 1.11. The same measure for “GTCCCTACTTGGGTTCTAACCTGTTGCCG (site GTCGCTACTCG)”: 0. The same measure for “GTCCCTACTTGGGTTCTAACCTGTTGCCG (site GTCTCTACTCG)”: 0.0614; for “GTCCGCTCTTGGGTTCTAACCTGTTGCCT (site ATCCGCTCTAG)”: 1.4; for “GTCCGCTCTTGGGTTCTAACCTGTTGCCT (site CTCCGCTCTAG)”: 0.823.

Take “GTCCGCTCTTGGGTTCTAACCTGTTGCCT (site GTCCGCTCTAG)”: the “recombinant barcode read abundance (log10)” value was found to be 2.37. With “GTCCGCTCTTGGGTTCTAACCTGTTGCCT (site TTCCGCTCTAG)”, the “recombinant barcode read abundance (log10)” value amounted to 0.383.

Consider “GTCCGGTCTTGGGTTCTAACCTGTTGCTT (site GTCCGGTCTAA)”, for which the “recombinant barcode read abundance (log10)” value came out at 1.07. Turning to “GTCCGGTCTTGGGTTCTAACCTGTTGCTT (site GTCGGGTCTAG)”, the “recombinant barcode read abundance (log10)” value was 0.097.

With “GTCCGTCCTTGGGTTCTAACCTGTTGCTT (site GTCCGTCCTAA)”, the “recombinant barcode read abundance (log10)” value came out at 0.907. Consider “GTCCGTCCTTGGGTTCTAACCTGTTGCTT (site GTCCGTCCTAC)”, for which the “recombinant barcode read abundance (log10)” value was determined as 0.0973. For the sequence “GTCCGTCCTTGGGTTCTAACCTGTTGCTT (site GTCCGTCCTAG)”, the “recombinant barcode read abundance (log10)” value was found to be 0.249. For “GTCCGTCCTTGGGTTCTAACCTGTTGCTT (site GTCCGTCCTAT)” the value was 0.416; for “GTCCTACCTTGGGTTCTAACCTGTTGCTA (site AGAAATACTCG)”, 0.442; for “GTCCTACCTTGGGTTCTAACCTGTTGCTA (site GTCCTACCTTA)”, 1.63. On to “GTCCTATCTTGGGTTCTAACCTGTTGCAC (site CGAGGCCCTAA)”, for which the “recombinant barcode read abundance (log10)” value is 0.0371.

For “GTCCTATCTTGGGTTCTAACCTGTTGCAC (site GTCCTATCTGT)”, the “recombinant barcode read abundance (log10)” value was 1.98. In the case of “GTCGATCCTTGGGTTCTAACCTGTTGCCT (site GACGATCCTAG)”, the “recombinant barcode read abundance (log10)” value was 0.69. As for “GTCGATCCTTGGGTTCTAACCTGTTGCCT (site GCCGATCCTAG)”, the “recombinant barcode read abundance (log10)” value came to 0.639.

Turning to “GTCGATCCTTGGGTTCTAACCTGTTGCCT (site GGCGATCCTAG)”, the “recombinant barcode read abundance (log10)” value was found to be 0.221.

Turning to “GTCGATCCTTGGGTTCTAACCTGTTGCCT (site GTCGATCCTAG)”, the “recombinant barcode read abundance (log10)” value turned out to be 1.68. In the case of “GTCGCCTCTTGGGTTCTAACCTGTTGCCT (site GTCACCTCTAG)”, the “recombinant barcode read abundance (log10)” value stood at 0.157. As to “GTCGCCTCTTGGGTTCTAACCTGTTGCCT (site GTCCCCTCTAG)”, the “recombinant barcode read abundance (log10)” value came to 0.491.

With “GTCGCCTCTTGGGTTCTAACCTGTTGCCT (site GTCGCCTCTAG)”, the “recombinant barcode read abundance (log10)” value is 0.297. In the case of “GTCGCCTCTTGGGTTCTAACCTGTTGCCT (site GTCTCCTCTAG)”, the “recombinant barcode read abundance (log10)” value amounted to 0.0886.

“GTCGGAGCTTGGGTTCTAACCTGTTGCAG (site GTCGGAGCTCA)”: the “recombinant barcode read abundance (log10)” value amounted to 0.681. Take “GTCGGAGCTTGGGTTCTAACCTGTTGCAG (site GTCGGAGCTCC)”: the “recombinant barcode read abundance (log10)” value stood at 0.165. Consider “GTCGGAGCTTGGGTTCTAACCTGTTGCAG (site GTCGGAGCTCG)”, for which the “recombinant barcode read abundance (log10)” value came to 0.104. Turning to “GTCGGAGCTTGGGTTCTAACCTGTTGCAG (site GTCGGAGCTCT)”, the “recombinant barcode read abundance (log10)” value stood at 1.89. For “GTCGGGTCTTGGGTTCTAACCTGTTGCCT (site GTCCGGTCTAA)”, the “recombinant barcode read abundance (log10)” value worked out at 0.054. For “GTCGGGTCTTGGGTTCTAACCTGTTGCCT (site GTCGGGTCTAG)”, the “recombinant barcode read abundance (log10)” value was 1.47. On to “GTCGGTCCTTGGGTTCTAACCTGTTGCCG (site AGTTTAACTGT)”, for which the “recombinant barcode read abundance (log10)” value is 0.0178. For “GTCGGTCCTTGGGTTCTAACCTGTTGCCG (site GTCGGTCCTCG)” the value was 1.04. Regarding “GTCGTCCCTTGGGTTCTAACCTGTTGCCA (site GCCGTCCCTTA)”, the “recombinant barcode read abundance (log10)” value was found to be 0.071.

As for “GTCGTCCCTTGGGTTCTAACCTGTTGCCA (site GTCGTCCCTTG)”, the “recombinant barcode read abundance (log10)” value came out at 0.231. For “GTCTATGCTTGGGTTCTAACCTGTTGCCT (site GACTATGCTAG)” the value was 0.106; for “GTCTATGCTTGGGTTCTAACCTGTTGCCT (site GCCTATGCTAG)”, 0.213. Turning to “GTCTATGCTTGGGTTCTAACCTGTTGCCT (site GGCTATGCTAG)”, the “recombinant barcode read abundance (log10)” value is 0.185.

(Values after the supplement of paper PMC11208160.)
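Note: IS621 recombinase and bridge RNA in Escherichia coli cells.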
